The results in this text go back to patent publication US9776149B2, “Compositions and methods for preparing nanoformulations and systems for nano-delivery using focused acoustics” (Covaris, Inc., priority 2010, dated 2017).

Data set [1] is described as follows: Particle size of drug suspensions before and after focused acoustic processing (Malvern Mastersizer 2000 / Zetasizer Nano ZS-90). It counts as physicochemical. An excerpt:
Particle size distributions of mixtures and/or nanoformulations described herein may be measured using dynamic laser light scattering, also called Photon correlation spectroscopy (e.g., using Malvern Zetasizer-S, Zetasizer Nano ZS-90 or Mastersizer 2000 instruments; Malvern Instruments Inc.; Southborough Mass.). The Malvern Zetasizer-S instrument was used to estimate average particle sizes with a 4 mW He—Ne laser operating at a wavelength of 633 nm and an avalanche photodiode detector (APD). The average size of particles in a mixture may be estimated as the mean hydrodynamic size. The particle size distribution may be estimated according to polydispersity index (PDI), which is known in the art as a measure of the tightness of a distribution. The average size of particles and the PDI of mixtures and nanoformulations discussed herein are calculated according to the International Standard on dynamic light scattering, ISO 13321.
Suspension mixtures were prepared in water (deionized and purified by a Barnstead water purification system), methyl cellulose (from Sigma Aldrich) and sodium lauryl sulfate (from Fisher Scientific) for Ibuprofen (from Spectrum Chemicals), Cinnarizine (from Spectrum Chemicals), Indomethacin (from Spectrum Chemicals) and Griseofulvin (from MP Bio). The initial particle sizes of these suspension mixtures was reduced subject to focused acoustic processing using a Covaris SF220 High Performance Formulation Processing System under 150 Watts of power. Particle size distributions were measured using a Malvern Zetasizer Nano ZS-90 in the nanometer particle size range and a Malvern Mastersizer 2000 in the micron particle size range.
Suspension mixtures included water, 0.5% methyl cellulose and 0.1% sodium lauryl sulfate for Ibuprofen, Cinnarizine, Indomethacin and Griseofulvin at 15 mg/mL for batches of 2 mL, 12 mL and 18 mL. The 2 mL, 12 mL and 18 mL batches were subject to focused acoustic processing for 5 minutes, 5 minutes and 10 minutes, respectively. […] The image 400 prior to exposure to the focused acoustics depicts particles that are substantially larger (e.g., 15-20×) than corresponding particles shown in the image 402 after treatment of the particles to the focused acoustics. Particle size results for each of the four compounds are provided in Table 1 (particle sizes are noted as d90 unless specified otherwise).
The concentration of Ibuprofen was then varied in respective suspensions at fixed volumes of 2 mL, 12 mL and 18 mL. […] For instance, after 10 minutes of focused acoustic processing, the percent difference of the greatest variation in d90 particle size (i.e., 39.53-34.04=5.49) between concentrations (i.e., for 1 mg/mL, 15 mg/mL and 100 mg/mL) as compared to the initial d90 particle size (i.e., 203.67) is less than 3%.
Suspension mixtures included water, 0.025% methyl cellulose and 0.1% sodium lauryl sulfate for Ibuprofen, Cinnarizine, Indomethacin and Griseofulvin at 5 mg/mL for 2 mL batches. Each batch was subject to focused acoustic processing for 15 minutes and 30 minutes, respectively. Table 3 lists the average particle size results for each of the four compounds. Within 15 minutes, nano-suspensions were generated with an average particle size ranging between 100 nm and 280 nm for each of the mixtures. Within 30 minutes, an average particle size range of between 20 nm and 97 nm was achieved.
Using a scale-up system and without changing the mechanical attributes of the particle size reduction process, the Ibuprofen suspension mixture was increased to 250 mL. The flow rate was set to 30 mL/min. […] Suspension aliquots were analyzed by HPLC using a stability-indicating method as a guide. […] Through 60 minutes of focused acoustic processing, the particle size distribution of the suspension was measured to have a relative standard deviation of 0.38%. […]

Data set [2] is described as follows: Homogeneity and chemical stability of 250 mL Ibuprofen suspension (sampling at different depths, HPLC). It counts as physicochemical. The procedure:
Using a scale-up system and without changing the mechanical attributes of the particle size reduction process, the Ibuprofen suspension mixture was increased to 250 mL. The flow rate was set to 30 mL/min. […] Suspension aliquots were analyzed by HPLC using a stability-indicating method as a guide. […] Through 60 minutes of focused acoustic processing, the particle size distribution of the suspension was measured to have a relative standard deviation of 0.38%. […] FIG. 7 illustrates the results of such size reduction over time for d90 particle size 410, d50 particle size 412 and d10 particle size 414.

Where [3] appears, read: 15 mg/mL suspension, 2 mL, 5 min.
The mark [4] stands for this setting: 15 mg/mL suspension, 12 mL, 5 min.
[5] abbreviates: 15 mg/mL suspension, 18 mL, 10 min.
Setting [6] is: 15 mg/mL suspension, Initial (before focused acoustic processing).
Where [7] appears, read: nano-suspension, 5 mg/mL, 2 mL batch, 15 min.
Where [8] appears, read: nano-suspension, 5 mg/mL, 2 mL batch, 30 min.
Where [9] appears, read: nano-suspension, 5 mg/mL, 2 mL batch, Initial.
[10] abbreviates: 1, 15 and 100 mg/mL, after 10 minutes of processing.

With `C(=C\c1ccccc1)/CN1CCN(C(c2ccccc2)c2ccccc2)CC1` [Cinnarizine], the “Particle size (d90)” value in data set [1] (setting [3]) was 37.29 microns; in data set [1] (setting [4]), 41.73 microns; in data set [1] (setting [5]), 43.00 microns; in data set [1] (setting [6]) it was 149.17 microns. Besides, the Average particle size in data set [1] (250 mL scale-up, 1 hour of processing) was 1 micron; in data set [1] (250 mL scale-up, about 9 hours), “approximately 200 nm”; in data set [1] (250 mL scale-up, starting), “approximately 200 microns”; in data set [1] (setting [7]), 280 nm; in data set [1] (setting [8]), 56.85 nm; in data set [1] (setting [9]), 149.17 microns.
`COC1=CC(=O)C[C@@H](C)[C@]12Oc1c(Cl)c(OC)cc(OC)c1C2=O` [Griseofulvin]: the “Particle size (d90)” value in data set [1] (setting [3]) amounted to 16.86 microns; in data set [1] (setting [4]), 31.45 microns; in data set [1] (setting [5]), 31.01 microns; in data set [1] (setting [6]) it was 44.45 microns. Also, the Average particle size in data set [1] (setting [7]) came to 100 nm; in data set [1] (setting [8]) it was 90 nm; in data set [1] (setting [9]), 44.45 microns.
As to `CC(C)Cc1ccc(C(C)C(=O)O)cc1` (stereo not drawn) [Ibuprofen], in data set [2] (first measured time point of 15 minutes), the Homogeneity of suspension entry is given as “homogeneous”. In addition, in data set [2] (over 60 minutes of processing), the “Chemical stability (impurity growth, HPLC)” value is “no impurity growth”. Also, in data set [1] (setting [3]), the “% of particles below 20 microns” value is recorded as “(100% of particles”. The “Particle size (d90)” value in data set [1] (setting [3]) is on record as 12.55 microns; in data set [1] (setting [4]), 33.35 microns; in data set [1] (setting [5]) it was 39.53 microns; in data set [1] (setting [6]) it was 203.67 microns; in data set [1] (Table 2, 1 mg/mL, 2 mL, 5 min) it was 12.55 microns; in data set [1] (Table 2, 1 mg/mL, 12 mL, 5 min), 33.35 microns. Moreover, the “Particle size (d90)” value is 39.53 microns in data set [1] (Table 2, 1 mg/mL, 18 mL, 10 min); 203.67 microns in data set [1] (Table 2, 1 mg/mL, Initial); 19.03 microns in data set [1] (Table 2, 15 mg/mL, 2 mL, 5 min); 34.88 microns in data set [1] (Table 2, 15 mg/mL, 12 mL, 5 min); 34.04 microns in data set [1] (Table 2, 15 mg/mL, 18 mL, 10 min); 203.67 microns in data set [1] (Table 2, 15 mg/mL, Initial). Also, the “Particle size (d90)” value in data set [1] (Table 2, 100 mg/mL, 2 mL, 5 min) is reported as 29.54 microns; in data set [1] (Table 2, 100 mg/mL, 12 mL, 5 min) it was 37.78 microns; in data set [1] (Table 2, 100 mg/mL, 18 mL, 10 min) it was 35.53 microns; in data set [1] (Table 2, 100 mg/mL, Initial), 203.67 microns. In addition, the “% of particles below 40 microns” value in data set [1] (setting [4]) and in data set [1] (setting [5]) was “(97% of particles” in each case. Also, the “% of particles above 40 microns” value in data set [1] (15 mg/mL suspension, Initial) is recorded as “(97% of particles”. Besides, in data set [1] (15 mg/mL, 50× magnification), the “Particles prior to focused acoustics larger than particles after treatment (micrographs, FIG. 6)” value is recorded as 15-20 ×. The “Greatest variation in d90 particle size between concentrations” value in data set [1] (setting [10]) was 5.49. For the same compound, the “Percent difference of greatest variation in d90 between concentrations compared to initial d90” value in data set [1] (setting [10]) is on record as “less than 3%”. Besides, the “Percentage of particles below 40 microns” value in data set [1] (250 mL scale-up, 15 min) came to 90%; in data set [1] (250 mL scale-up, 30 min) it was 93.57%; in data set [1] (250 mL scale-up, 45 min) it was 98.31%; in data set [1] (250 mL scale-up, 60 min) it was 98.39%; in data set [1] (250 mL scale-up, Initial) it was 5%. Besides, the d10 in data set [1] (250 mL scale-up, 15 min) is listed as 6.805 microns; in data set [1] (250 mL scale-up, 30 min), 6.023 microns; in data set [1] (250 mL scale-up, 45 min), 3.583 microns; in data set [1] (250 mL scale-up, 60 min), 3.351 microns; in data set [1] (250 mL scale-up, Initial), 50 microns. Further, the d50 in data set [1] (250 mL scale-up, 15 min) was found to be 21.701 microns; in data set [1] (250 mL scale-up, 30 min), 19.055 microns; in data set [1] (250 mL scale-up, 45 min) it was 16.167 microns; in data set [1] (250 mL scale-up, 60 min), 14.843 microns; in data set [1] (250 mL scale-up, Initial), 97.834 microns. Moreover, the d90 worked out at 39.726 microns in data set [1] (250 mL scale-up, 15 min); 36.328 microns in data set [1] (250 mL scale-up, 30 min); 31.091 microns in data set [1] (250 mL scale-up, 45 min); 28.005 microns in data set [1] (250 mL scale-up, 60 min); 203.67 microns in data set [1] (250 mL scale-up, Initial). The Average particle size stood at 110 nm in data set [1] (setting [7]), 97 nm in data set [1] (setting [8]) and 203.67 microns in data set [1] (setting [9]).
For `COc1ccc2c(c1)c(CC(=O)O)c(C)n2C(=O)c1ccc(Cl)cc1` [Indomethacin], the “Particle size (d90)” value in data set [1] (setting [3]) worked out at 20.88 microns; in data set [1] (setting [4]) it was 38.32 microns; in data set [1] (setting [5]), 28.73 microns; in data set [1] (setting [6]) it was 239.88 microns. Besides, the Average particle size result is given as “approximately 5 microns” in data set [1] (in water, after exposure to focused acoustic energy (FIG. 12)); 127.4 nm in data set [1] (setting [7]); 20 nm in data set [1] (setting [8]); 239.88 microns in data set [1] (setting [9]).
With `O=c1c(O)c(-c2ccc(O)c(O)c2)oc2cc(O)cc(O)c12` [Quercetin], the Average particle size result was “less than 10 microns” in data set [1] (250 mL in water, no surfactant, 24 degrees C., in under 80 minutes) and “over 200 microns” in data set [1] (250 mL in water, no surfactant, before processing).
